Data reported in ChEMBL document CHEMBL4422634, “Discovery of novel anti-angiogenesis agents. Part 9: Multiplex inhibitors suppressing compensatory activations of RTKs” (Eur J Med Chem, 2019).

Legend:
[1] = test system: EA.hy 926; assay: Antiproliferative activity against human EAhy926 cells assessed as reduction in cell viability after 24 hrs by CCK-8 assay; conditions: EA.hy 926, 24 h
[2] = target: Vascular endothelial growth factor receptor 2 (Homo sapiens, UniProt P35968); assay: Inhibition of VEGFR-2 (unknown origin) after 1 hrs by ADP-Glo luminescence assay
[3] = target: Angiopoietin-1 receptor (Homo sapiens, UniProt Q02763); assay: Inhibition of Tie-2 (unknown origin) after 1 hrs by ADP-Glo luminescence assay
[4] = target: T1, Ephrin type-B receptor 4 (Homo sapiens, UniProt P54760); assay: Inhibition of EphB4 (unknown origin) after 1 hrs by ADP-Glo luminescence assay
T1 sequence (P54760 whole entry): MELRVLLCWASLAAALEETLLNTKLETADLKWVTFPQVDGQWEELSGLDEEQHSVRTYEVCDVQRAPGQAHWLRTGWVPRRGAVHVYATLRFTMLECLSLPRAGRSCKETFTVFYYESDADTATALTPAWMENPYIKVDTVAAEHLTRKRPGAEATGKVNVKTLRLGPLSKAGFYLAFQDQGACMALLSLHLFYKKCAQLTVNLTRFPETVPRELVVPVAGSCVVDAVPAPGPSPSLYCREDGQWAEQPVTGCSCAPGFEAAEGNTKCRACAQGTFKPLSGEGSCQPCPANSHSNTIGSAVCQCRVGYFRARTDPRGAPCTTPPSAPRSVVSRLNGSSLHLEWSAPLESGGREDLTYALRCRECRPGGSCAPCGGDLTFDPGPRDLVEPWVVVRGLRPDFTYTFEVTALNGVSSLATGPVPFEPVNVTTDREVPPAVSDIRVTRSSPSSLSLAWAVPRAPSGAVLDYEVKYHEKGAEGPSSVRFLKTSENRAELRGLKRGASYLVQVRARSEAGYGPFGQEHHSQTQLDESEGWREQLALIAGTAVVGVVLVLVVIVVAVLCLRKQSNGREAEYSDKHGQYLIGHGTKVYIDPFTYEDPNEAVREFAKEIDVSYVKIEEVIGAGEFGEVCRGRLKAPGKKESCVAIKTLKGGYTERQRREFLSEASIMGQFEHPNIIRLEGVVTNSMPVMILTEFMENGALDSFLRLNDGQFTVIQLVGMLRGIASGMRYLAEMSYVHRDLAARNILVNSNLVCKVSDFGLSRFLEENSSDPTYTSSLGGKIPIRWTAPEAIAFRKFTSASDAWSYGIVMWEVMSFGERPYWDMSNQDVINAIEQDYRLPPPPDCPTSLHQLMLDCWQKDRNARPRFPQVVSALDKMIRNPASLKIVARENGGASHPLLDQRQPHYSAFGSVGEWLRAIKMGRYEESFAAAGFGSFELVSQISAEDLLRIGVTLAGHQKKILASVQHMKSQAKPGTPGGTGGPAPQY

[5] = test system: A549; assay: Antiproliferative activity against human A549 cells after 48 hrs by MTT assay; conditions: A549, 48 h
[6] = test system: A-431; assay: Antiproliferative activity against human A431 cells after 48 hrs by MTT assay; conditions: A-431, 48 h
[7] = test system: LoVo; assay: Antiproliferative activity against human LoVo cells after 48 hrs by MTT assay
[8] = test system: MCF7; assay: Antiproliferative activity against human MCF7 cells after 48 hrs by MTT assay; conditions: MCF7, 48 h
[9] = test system: HeLa; assay: Antiproliferative activity against human HeLa cells after 48 hrs by MTT assay

Vascular endothelial growth factor receptor 2, sequence (P35968 whole entry): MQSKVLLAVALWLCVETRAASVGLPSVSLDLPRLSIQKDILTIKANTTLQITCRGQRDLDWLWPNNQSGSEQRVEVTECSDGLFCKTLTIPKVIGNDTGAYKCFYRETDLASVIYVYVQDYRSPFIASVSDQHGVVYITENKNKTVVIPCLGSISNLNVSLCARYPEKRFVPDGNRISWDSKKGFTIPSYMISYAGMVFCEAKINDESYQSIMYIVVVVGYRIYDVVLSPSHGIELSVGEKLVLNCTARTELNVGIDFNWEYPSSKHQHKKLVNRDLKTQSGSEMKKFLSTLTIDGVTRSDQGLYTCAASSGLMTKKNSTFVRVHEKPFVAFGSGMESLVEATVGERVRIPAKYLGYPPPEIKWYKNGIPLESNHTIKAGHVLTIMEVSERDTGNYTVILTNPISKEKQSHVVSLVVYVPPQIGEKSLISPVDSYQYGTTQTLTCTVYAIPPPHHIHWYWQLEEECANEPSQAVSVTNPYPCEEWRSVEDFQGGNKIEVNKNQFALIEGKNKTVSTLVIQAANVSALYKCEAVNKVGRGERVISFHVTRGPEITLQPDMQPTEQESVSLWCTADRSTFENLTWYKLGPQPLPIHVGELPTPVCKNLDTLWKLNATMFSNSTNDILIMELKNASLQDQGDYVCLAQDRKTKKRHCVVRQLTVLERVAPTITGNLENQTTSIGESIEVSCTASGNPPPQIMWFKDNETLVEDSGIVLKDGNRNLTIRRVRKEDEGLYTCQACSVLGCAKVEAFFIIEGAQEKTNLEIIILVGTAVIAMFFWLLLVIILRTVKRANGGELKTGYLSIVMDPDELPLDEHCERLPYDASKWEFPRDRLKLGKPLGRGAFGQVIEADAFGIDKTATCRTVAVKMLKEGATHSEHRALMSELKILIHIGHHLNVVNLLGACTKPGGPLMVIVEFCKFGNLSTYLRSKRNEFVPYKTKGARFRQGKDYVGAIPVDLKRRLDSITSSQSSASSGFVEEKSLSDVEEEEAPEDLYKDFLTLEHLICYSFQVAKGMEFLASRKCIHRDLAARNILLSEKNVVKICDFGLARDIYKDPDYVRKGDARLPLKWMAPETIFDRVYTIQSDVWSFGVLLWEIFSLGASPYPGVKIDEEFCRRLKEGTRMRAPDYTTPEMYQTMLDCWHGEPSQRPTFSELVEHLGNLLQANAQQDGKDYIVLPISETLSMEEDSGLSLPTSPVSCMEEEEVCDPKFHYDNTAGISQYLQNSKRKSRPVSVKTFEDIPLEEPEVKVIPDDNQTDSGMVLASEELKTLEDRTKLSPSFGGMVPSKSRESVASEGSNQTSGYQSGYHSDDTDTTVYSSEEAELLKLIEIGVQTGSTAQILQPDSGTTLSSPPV
Angiopoietin-1 receptor, sequence (Q02763 whole entry): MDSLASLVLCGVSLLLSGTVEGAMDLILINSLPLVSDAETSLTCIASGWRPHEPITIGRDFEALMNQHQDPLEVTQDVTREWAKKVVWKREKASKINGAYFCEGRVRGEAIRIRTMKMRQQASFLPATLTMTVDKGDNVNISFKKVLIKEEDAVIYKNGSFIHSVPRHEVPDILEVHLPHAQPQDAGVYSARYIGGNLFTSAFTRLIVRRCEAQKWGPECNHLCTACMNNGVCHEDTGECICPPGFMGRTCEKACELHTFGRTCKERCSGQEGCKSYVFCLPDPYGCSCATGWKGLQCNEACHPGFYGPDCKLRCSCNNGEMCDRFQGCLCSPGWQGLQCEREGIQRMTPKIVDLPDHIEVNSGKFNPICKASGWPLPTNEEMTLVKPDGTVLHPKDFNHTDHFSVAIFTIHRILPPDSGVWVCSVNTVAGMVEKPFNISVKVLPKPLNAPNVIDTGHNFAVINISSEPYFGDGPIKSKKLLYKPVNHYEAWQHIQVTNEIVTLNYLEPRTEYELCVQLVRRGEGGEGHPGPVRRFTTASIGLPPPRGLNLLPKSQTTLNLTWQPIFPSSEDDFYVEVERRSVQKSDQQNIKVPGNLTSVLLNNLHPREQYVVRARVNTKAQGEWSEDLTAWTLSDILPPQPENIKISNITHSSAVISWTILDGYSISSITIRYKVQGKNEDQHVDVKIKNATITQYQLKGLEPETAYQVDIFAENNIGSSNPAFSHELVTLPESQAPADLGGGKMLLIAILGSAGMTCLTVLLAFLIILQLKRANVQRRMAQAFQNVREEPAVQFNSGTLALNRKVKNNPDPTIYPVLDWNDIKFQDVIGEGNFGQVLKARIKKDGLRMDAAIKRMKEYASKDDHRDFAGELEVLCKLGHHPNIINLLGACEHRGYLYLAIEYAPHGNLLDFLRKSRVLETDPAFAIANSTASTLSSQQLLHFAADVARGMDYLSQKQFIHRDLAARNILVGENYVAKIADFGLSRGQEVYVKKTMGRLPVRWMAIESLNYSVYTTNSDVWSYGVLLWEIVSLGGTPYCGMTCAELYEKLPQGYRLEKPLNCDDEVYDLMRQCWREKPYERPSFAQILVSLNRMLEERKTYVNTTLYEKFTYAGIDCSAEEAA

Compound	IC50 [1] [nM]	IC50 [3] [nM]	IC50 [4] [nM]	further results
Cc1cccc(-c2cn(Cc3ccc(-c4cnn(C)c4)cc3)nn2)c1	1110	51.4	–	IC50 [2]: > 1000 nM
Fc1ccccc1-c1cn(Cc2ccc(-c3cn[nH]c3)cc2)nn1	20000	5.46	–	–
O=C(Nc1cccc(-c2cn(Cc3ccc(-c4cncnc4)cc3)nn2)c1)C1CC1	17300	> 1000	> 1000	–
Nc1cccc(-c2cn(Cc3ccc(-c4cncnc4)cc3)nn2)c1	30200	210	> 1000	–
FC(F)(F)c1ccc(-c2cn(Cc3ccc(-c4cncnc4)cc3)nn2)cc1	46800	> 1000	> 1000	–
Cc1ccc(-c2cn(Cc3ccc(-c4cncnc4)cc3)nn2)cc1	1010	25.7	–	–
Cn1cc(-c2ccc(Cn3cc(-c4ccccc4)nn3)cc2)cn1	62200	> 1000	–	–
c1ccc(-c2cn(Cc3ccc(-c4cncnc4)cc3)nn2)cc1	35500	51.9	–	IC50 [2]: > 1000 nM
Fc1ccccc1-c1cn(Cc2ccc(-c3cncnc3)cc2)nn1	22500	5.45	–	–
Cn1cc(-c2ccc(Cn3cc(-c4ccccc4F)nn3)cc2)cn1	1900	2.69	–	IC50 [5]: 1200 nM; IC50 [6]: 7290 nM; IC50 [7]: 1320 nM; IC50 [8]: 15600 nM; IC50 [9]: 27800 nM
Nc1cccc(-c2cn(Cc3ccc(-c4cn[nH]c4)cc3)nn2)c1	251000	> 1000	> 1000	IC50 [2]: > 1000 nM
Cc1cccc(-c2cn(Cc3ccc(-c4cn[nH]c4)cc3)nn2)c1	134000	46.4	> 1000	–
Cn1cc(-c2ccc(Cn3cc(-c4cccc(C(F)(F)F)c4)nn3)cc2)cn1	69000	1.79	–	–
Cn1cc(-c2ccc(Cn3cc(-c4cccc(N)c4)nn3)cc2)cn1	22000	> 1000	> 1000	–
Cn1cc(-c2ccc(Cn3cc(-c4ccc(C(F)(F)F)cc4)nn3)cc2)cn1	–	9.11	–	IC50 [2]: > 1000 nM
Cn1cc(-c2ccc(Cn3cc(-c4cccc(NC(=O)C5CC5)c4)nn3)cc2)cn1	484000	0.82	> 1000	–
Cc1ccc(-c2cn(Cc3ccc(-c4cnn(C)c4)cc3)nn2)cc1	38100	77.4	–	–
Cc1cccc(-c2cn(Cc3ccc(-c4cncnc4)cc3)nn2)c1	142000	13.7	–	–
Clc1cccc(-c2cn(Cc3ccc(-c4cncnc4)cc3)nn2)c1	7830	–	> 1000	–
FC(F)(F)c1ccc(-c2cn(Cc3ccc(-c4cn[nH]c4)cc3)nn2)cc1	20900	> 1000	–	IC50 [2]: > 1000 nM
CNC(=O)c1cc(Oc2ccc(NC(=O)Nc3ccc(Cl)c(C(F)(F)F)c3)cc2)ccn1 [SORAFENIB]	–	–	–	IC50 [5]: 3880 nM; IC50 [6]: 3320 nM; IC50 [7]: 2520 nM; IC50 [8]: 3470 nM; IC50 [9]: 8740 nM
